Reference: patent US20250171430A1, “PYRAZOLYL COMPOUNDS AS KV7 CHANNEL ACTIVATORS” (Biohaven Therapeutics Ltd., priority 2022, published 2025)

Biological target: T1, Kv7.2/7.3 (Homo sapiens, UniProt O43525+O43526)
T1 construct: Kv7.2 tetracycline-induced, Kv7.3 constitutive
Experiment: Kv7.2/7.3 Activation Assay (Thallium Flux Assay)
Type: cell-based
Settings: hKV7.2/7.3 cell line; test compound at single concentration of 10 μM; fluorescence at 90 sec normalized to positive control (retigabine, 30 μM)
How it was run: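 Single-point activity at 10 μM (0.1% DMSO, HEPES-buffered saline, pH 7.4) was scored from fluorescence at 90 s relative to 30 μM retigabine. Categories were none <0.15, moderate 0.15-0.7 and high >0.7. Thallium influx after stimulus addition was followed with FluxOR II Green dye in hKv7.2/7.3 cells, Kv7.2 expressed under overnight tetracycline (10 ng/mL) induction.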

Structure (SMILES) | Kv7.2/7.3 Activity
Cn1nc(NC(=O)CC(C)(O)c2ccc(F)cc2F)c(C2CCC2)c1-c1ccc(OC(F)(F)F)cc1 (stereo not drawn) [Compound 176, N-(4-cyclobutyl-1-methyl-5-(4-(trifluoromethoxy)phenyl)-1H-pyrazol-3-yl)-3-(2,4-difluorophenyl)-3-hydroxybutanamide] | ++ (“++” High Activity ≥ 0.7)
C[C@H](C(=O)Nc1nn(C)c(-c2ccc(OC(F)(F)F)cc2)c1C1CCC1)C1CC(F)(F)C1 [Compound 177, (S)-N-(4-cyclobutyl-1-methyl-5-(4-(trifluoromethoxy)phenyl)-1H-pyrazol-3-yl)-2-(3,3-difluorocyclobutyl)propanamide] | ++ (“++” High Activity ≥ 0.7)
C[C@@H](C(=O)Nc1nn(C)c(-c2ccc(OC(F)(F)F)cc2)c1C1CCC1)C1CC(F)(F)C1 [Compound 178, (R)-N-(4-cyclobutyl-1-methyl-5-(4-(trifluoromethoxy)phenyl)-1H-pyrazol-3-yl)-2-(3,3-difluorocyclobutyl)propanamide] | − (“−” No Activity < 0.15)
Cn1nc(NC(=O)C23CC(C(F)(F)F)(C2)C3)c(C2CCC2)c1-c1ccc(F)cc1 [Compound 179, N-(4-cyclobutyl-5-(4-fluorophenyl)-1-methyl-1H-pyrazol-3-yl)-3-(trifluoromethyl)bicyclo[1.1.1]pentane-1-carboxamide] | ++ (“++” High Activity ≥ 0.7)
Cn1nc(NC(=O)CC(C(F)(F)F)C(F)(F)F)c(C2CCC2)c1-c1ccc(OC(F)(F)F)cc1 [Compound 180, N-(4-cyclobutyl-1-methyl-5-(4-(trifluoromethoxy)phenyl)-1H-pyrazol-3-yl)-4,4,4-trifluoro-3-(trifluoromethyl)butanamide] | ++ (“++” High Activity ≥ 0.7)
Cn1nc(NC(=O)C(C)(O)c2ccccc2)c(C2CCC2)c1-c1ccc(OC(F)(F)F)cc1 (stereo not drawn) [Compound 181, N-(4-cyclobutyl-1-methyl-5-(4-(trifluoromethoxy)phenyl)-1H-pyrazol-3-yl)-2-hydroxy-2-phenylpropanamide] | − (“−” No Activity < 0.15)
Cn1nc(NC(=O)C(C)(O)c2ccccc2)c(C2CCC2)c1-c1ccc(OC(F)(F)F)cc1 (stereo not drawn) [Compound 182, N-(4-cyclobutyl-1-methyl-5-(4-(trifluoromethoxy)phenyl)-1H-pyrazol-3-yl)-2-hydroxy-2-phenylpropanamide] | ++ (“++” High Activity ≥ 0.7)
Cn1nc(NC(=O)[C@H]2C[C@@H](C)C2)c(C2CCC2)c1-c1ccc(OC(F)(F)F)cc1 [Compound 183, (1s,3s)-N-(4-cyclobutyl-1-methyl-5-(4-(trifluoromethoxy)phenyl)-1H-pyrazol-3-yl)-3-methylcyclobutane-1-carboxamide] | ++ (“++” High Activity ≥ 0.7)
Cn1nc(NC(=O)[C@H]2C[C@H](C)C2)c(C2CCC2)c1-c1ccc(OC(F)(F)F)cc1 [Compound 184, (1r,3r)-N-(4-cyclobutyl-1-methyl-5-(4-(trifluoromethoxy)phenyl)-1H-pyrazol-3-yl)-3-methylcyclobutane-1-carboxamide] | ++ (“++” High Activity ≥ 0.7)
Cn1nc(NC(=O)C2CC(C)(C)C2)c(C2CCC2)c1-c1ccc(OC(F)(F)F)cc1 [Compound 185, N-(4-cyclobutyl-1-methyl-5-(4-(trifluoromethoxy)phenyl)-1H-pyrazol-3-yl)-3,3-dimethylcyclobutane-1-carboxamide] | ++ (“++” High Activity ≥ 0.7)
Cn1nc(NC(=O)C2CC3(C2)CC3(F)F)c(C2CCC2)c1-c1ccc(OC(F)(F)F)cc1 (stereo not drawn) [Compound 186, N-(4-cyclobutyl-1-methyl-5-(4-(trifluoromethoxy)phenyl)-1H-pyrazol-3-yl)-1,1-difluorospiro[2.3]hexane-5-carboxamide] | ++ (“++” High Activity ≥ 0.7)
Cn1nc(NC(=O)C2CC3(CCC3)C2)c(C2CCC2)c1-c1ccc(F)cc1 [Compound 187, N-(4-cyclobutyl-5-(4-fluorophenyl)-1-methyl-1H-pyrazol-3-yl)spiro[3.3]heptane-2-carboxamide] | ++ (“++” High Activity ≥ 0.7)
Cn1nc(NC(=O)C2CC(F)(F)C2)c(C2CCC2)c1C1CC(C)(C)C1 [Compound 188, N-(4-cyclobutyl-5-(3,3-dimethylcyclobutyl)-1-methyl-1H-pyrazol-3-yl)-3,3-difluorocyclobutane-1-carboxamide] | ++ (“++” High Activity ≥ 0.7)
Cn1nc(NC(=O)C2CC(F)(F)C2)c(C2CCC2)c1-c1ccc(OC(F)(F)F)cc1 [Compound 189, N-(4-cyclobutyl-1-methyl-5-(4-(trifluoromethoxy)phenyl)-1H-pyrazol-3-yl)-3,3-difluorocyclobutane-1-carboxamide] | + (“+” Moderate Activity 0.15-0.7)
Cn1nc(NC(=O)C2CCC2)c(C2CCC2)c1-c1ccc(OC(F)(F)F)cc1 [Compound 190, N-(4-cyclobutyl-1-methyl-5-(4-(trifluoromethoxy)phenyl)-1H-pyrazol-3-yl)cyclobutanecarboxamide] | ++ (“++” High Activity ≥ 0.7)
Cn1nc(NC(=O)C2CC(C(F)(F)F)C2)c(C2CCC2)c1-c1ccc(OC(F)(F)F)cc1 (stereo not drawn) [Compound 191, N-(4-cyclobutyl-1-methyl-5-(4-(trifluoromethoxy)phenyl)-1H-pyrazol-3-yl)-3-(trifluoromethyl)cyclobutane-1-carboxamide] | ++ (“++” High Activity ≥ 0.7)
Cn1nc(NC(=O)C2CC(F)(F)C2)c(C2CCC2)c1-c1ccc(F)c(F)c1 [Compound 192, N-(4-cyclobutyl-5-(3,4-difluorophenyl)-1-methyl-1H-pyrazol-3-yl)-3,3-difluorocyclobutane-1-carboxamide] | ++ (“++” High Activity ≥ 0.7)
Cn1nc(NC(=O)C2CC(F)(F)C2)c(C2CCC2)c1-c1cccc(F)c1 [Compound 193, N-(4-cyclobutyl-5-(3-fluorophenyl)-1-methyl-1H-pyrazol-3-yl)-3,3-difluorocyclobutane-1-carboxamide] | ++ (“++” High Activity ≥ 0.7)
Cn1nc(NC(=O)C2CC(F)(F)C2)c(C2CCC2)c1-c1ccc(Cl)s1 [Compound 194, N-(5-(5-chlorothiophen-2-yl)-4-cyclobutyl-1-methyl-1H-pyrazol-3-yl)-3,3-difluorocyclobutane-1-carboxamide] | ++ (“++” High Activity ≥ 0.7)
Cn1nc(NC(=O)C2CC(F)(F)C2)c(C2CCC2)c1-c1cnc(C(F)(F)F)s1 [Compound 195, N-(4-cyclobutyl-1-methyl-5-(2-(trifluoromethyl)thiazol-5-yl)-1H-pyrazol-3-yl)-3,3-difluorocyclobutane-1-carboxamide] | + (“+” Moderate Activity 0.15-0.7)
Cn1nc(NC(=O)C(C2CC2)C2CC2)c(C2CCC2)c1-c1ccc(F)cc1 [Compound 196, N-(4-cyclobutyl-5-(4-fluorophenyl)-1-methyl-1H-pyrazol-3-yl)-2,2-dicyclopropylacetamide] | + (“+” Moderate Activity 0.15-0.7)
Cn1nc(NC(=O)c2ccccc2)c(C2CCC2)c1-c1ccc(F)cc1 [Compound 197, N-(4-cyclobutyl-5-(4-fluorophenyl)-1-methyl-1H-pyrazol-3-yl)benzamide] | ++ (“++” High Activity ≥ 0.7)
Cn1nc(NC(=O)c2ccccc2)c(C2CCC2)c1-c1ccc(OC(F)(F)F)cc1 [Compound 198, N-(4-cyclobutyl-1-methyl-5-(4-(trifluoromethoxy)phenyl)-1H-pyrazol-3-yl)benzamide] | + (“+” Moderate Activity 0.15-0.7)
Cn1nc(NC(=O)C2(C)CC(F)(F)C2)c(C2CCC2)c1-c1ccc(F)cc1 [Compound 199, N-(4-cyclobutyl-5-(4-fluorophenyl)-1-methyl-1H-pyrazol-3-yl)-3,3-difluoro-1-methylcyclobutane-1-carboxamide] | ++ (“++” High Activity ≥ 0.7)
Cn1nc(NC(=O)C2(C)CC(F)(F)C2)c(C2CCC2)c1-c1ccc(OC(F)(F)F)cc1 [Compound 200, N-(4-cyclobutyl-1-methyl-5-(4-(trifluoromethoxy)phenyl)-1H-pyrazol-3-yl)-3,3-difluoro-1-methylcyclobutane-1-carboxamide] | + (“+” Moderate Activity 0.15-0.7)
Cn1nc(NC(=O)C2(C)CC(F)(F)C2)c(C2CCC2)c1-c1ccc(F)c(F)c1 [Compound 201, N-(4-cyclobutyl-5-(3,4-difluorophenyl)-1-methyl-1H-pyrazol-3-yl)-3,3-difluoro-1-methylcyclobutane-1-carboxamide] | ++ (“++” High Activity ≥ 0.7)
Cn1nc(NC(=O)[C@H]2C[C@](C)(F)C2)c(C2CCC2)c1-c1ccc(F)cc1 [Compound 202, (1r,3r)-N-(4-cyclobutyl-5-(4-fluorophenyl)-1-methyl-1H-pyrazol-3-yl)-3-fluoro-3-methylcyclobutane-1-carboxamide] | ++ (“++” High Activity ≥ 0.7)
Cn1nc(NC(=O)[C@H]2C[C@](C)(F)C2)c(C2CCC2)c1-c1cnc(C(F)(F)F)s1 [Compound 203, (1r,3r)-N-(4-cyclobutyl-1-methyl-5-(2-(trifluoromethyl)thiazol-5-yl)-1H-pyrazol-3-yl)-3-fluoro-3-methylcyclobutane-1-carboxamide] | + (“+” Moderate Activity 0.15-0.7)
Cn1nc(NC(=O)C2CC3(C2)CC(F)(F)C3)c(C2CCC2)c1-c1ccc(F)cc1 [Compound 204, N-(4-cyclobutyl-5-(4-fluorophenyl)-1-methyl-1H-pyrazol-3-yl)-6,6-difluorospiro[3.3]heptane-2-carboxamide] | ++ (“++” High Activity ≥ 0.7)
Cn1nc(NC(=O)C2CSC2)c(C2CCC2)c1-c1ccc(F)cc1 [Compound 205, N-(4-cyclobutyl-5-(4-fluorophenyl)-1-methyl-1H-pyrazol-3-yl)thietane-3-carboxamide] | ++ (“++” High Activity ≥ 0.7)
